These results are taken from patent publication US11680062B2, “3,4-methylenedioxyphenylimidazolylethanonexime ether derivative, preparation method and use thereof, and drug for the treatment of Alzheimer's disease” (NORTHWEST A&F UNIVERSITY, priority 2021, dated 2023).

Data set [1] relates to NO production in lipopolysaccharide-induced BV-2 microglia. Description: Inhibition of NO production in lipopolysaccharide-induced BV-2 microglia. The format is cell-based. Particulars: Mus musculus.
In data set [2] the test system is BV-2 microglia. To be noted: mouse.
Data set [3] relates to BV-2 microglia. Description: Cell viability corresponding to the NO production test.
In data set [4] the test system is 5×FAD transgenic mice. Briefly: Y maze test (working memory ability). Particulars: 5×FAD mice, 4 weeks. It counts as in vivo. As to the method: (§1) The AD model mice used are 5×FAD transgenic mice, purchased from the Jackson Laboratory (JAX), USA. The transgenic mice have Swedish (K670N/M671L), Florida (I716V) and London (V717I) mutations in amyloid precursor protein (APP), and M146L and L286V mutations in PSEN1.
(§2) All mice were fed and watered ad libitum at 22±2° C. with a humidity of 50±10% and a 12 h light/dark cycle until 6 months old, then the experiment was started. All operations were in accordance with the guidelines of the National Health Administration and the guidelines for the use of laboratory animals. […]
The Y maze test is a commonly used test method to assess working memory ability. […] The mice were placed in the center of the Y maze to explore the 3 arms freely for 5 min, all movements were recorded by a camera, and the spontaneous alternation ratio was calculated according to the situation of entering onto each arm.

For data set [5], the system named is 5×FAD transgenic mice. Briefly: Barnes maze test (learning and memory ability). Particulars: 5×FAD mice, 4 weeks. It counts as in vivo. As to the method:
as §1, §2
The Barnes maze test is widely used to assess spatial learning and memory abilities. […] When the cylinder was removed, light was given to allow the mice to explore the platform and find the escape box within 180 s, the time when the mice entered the escape box was recorded by a camera-based EthoVision system (Noldus) and recorded as the escape latency. […] The successful escape latency of mice was recorded and analyzed.

Data set [6] deals with 5×FAD transgenic mice. Briefly: Elevated plus maze test (anxiety behavior). The format is in vivo. To be noted: 5×FAD mice, 4 weeks. As to the method: as §1, §2
The elevated plus maze is a recognized behavior test used for anxiety behavior assessment. […] The times of entries onto the open arm and the total times were recorded, and the anxiety behavior of the animal was evaluated by the proportion of entries onto the open arm.

Data set [7] concerns 5×FAD transgenic mice. Briefly: Marble burying test (anxiety behavior). The format is in vivo. Particulars: 5×FAD mice, high dose 30 mg/kg/day intraperitoneal, 4 weeks. Here is the method:
as §1, §2
Each mouse was placed in a cage (28×18×12 cm) containing 20 clean marbles (1.5 cm in diameter), evenly distributed on the surface of clean wood chips (4 cm in depth). After 30 min, each mouse was removed from the cage and the number of marbles buried at least two-thirds was counted.

Where [8] appears, read: read-out: EC50 (inhibitory effect on the NO production).
Setting [9] is: read-out: EC50 (inhibition of NO production).
The mark [10] stands for this setting: high dose 30 mg/kg/day intraperitoneal.
Where [11] appears, read: low dose 15 mg/kg/day intraperitoneal.

Read-outs that look alike come from different tables or passages of the source.

As a reminder, the EC50 is the concentration that produces a half-maximal response. One may read the cell viability as the share of living cells, or the viability signal relative to a control. A high value points to less harm to the cells. As to `N#Cc1ccc(CO/N=C(\Cn2ccnc2)c2ccc3c(c2)OCO3)cc1` [I-9], the 50% effective concentration (EC50) in data set [1] (setting [8]) amounted to 4.24 ± 1.02 µM. In the data set on BV-2 microglia [2], this compound showed a cell viability of 91.6%.

For orientation: melting point means the temperature of the solid-liquid transition. Compound `FC(F)(F)c1ccccc1CO/N=C(\Cn1ccnc1)c1ccc2c(c1)OCO2` [I-8] yielded a melting point of 156.3 to 157.5 °C. Moreover, the EC50 in data set [1] (setting [8]) was 2.53 ± 0.47 µM. This compound also registered a cell viability in the data set with BV-2 microglia [2] of 95.4%.

As to `C(=C\c1ccccc1)/CO/N=C(\Cn1ccnc1)c1ccc2c(c1)OCO2` [I-10], the EC50 in data set [1] (setting [9]) and in data set [1] (setting [8]) was over 20 µM throughout. In addition, the cell viability in the data set on BV-2 microglia [2] came out at 96.3%.

For `O=c1c(O)c(-c2ccc(O)c(O)c2)oc2cc(O)cc(O)c12` [quercetin, reference compound], the half-maximal effective concentration (EC50) was found to be 9.56 µM in data set [1] (setting [9]) and 9.56 ± 1.62 µM in data set [1] (setting [8]). Moreover, the cell viability in the data set with BV-2 microglia [3] worked out at 94.3%.

`C#CCO/N=C(\Cn1ccnc1)c1ccc2c(c1)OCO2` [I-1]: the spontaneous alternation ratio entry in the data set with 5×FAD transgenic mice [4] (setting [10]) and with 5×FAD transgenic mice [4] (setting [11]) was “significantly increased” throughout. For the same compound, the “successful escape latency vs 5×FAD-Vehicle group” value with 5×FAD transgenic mice [5] (high dose 30 mg/kg/day intraperitoneal, day 3 and day 4) is on record as “significantly reduced”; in the data set on 5×FAD transgenic mice [5] (low dose 15 mg/kg/day intraperitoneal, day 4), “significantly reduced”. The EC50 in data set [1] (setting [8]) came to 2.07 ± 0.56 µM. Further, the “proportion of entries onto the open arm” value with 5×FAD transgenic mice [6] (setting [10]) and in the data set with 5×FAD transgenic mice [6] (setting [11]) was “significantly improved” each time. Also, the “number of marbles buried” value in the data set with 5×FAD transgenic mice [7] is listed as “significantly reduced”. This compound also gave a cell viability in the data set with BV-2 microglia [2] of 92.5%.

The compound `CC(C)=CCO/N=C(\Cn1ccnc1)c1ccc2c(c1)OCO2` [I-5] returned a melting point of 154.3 to 154.9 °C. For the same compound, in data set [1] (setting [8]), the EC50 turned out to be 2.76 ± 0.34 µM. The compound also gave a cell viability in the data set with BV-2 microglia [2] of 93.3%.

`Clc1ccc(CO/N=C(\Cn2ccnc2)c2ccc(Cl)cc2Cl)c(Cl)c1` [oxiconazole] came in with a cell viability with BV-2 microglia [3] of 96.2%.

Regarding `C=CCO/N=C(\Cn1ccnc1)c1ccc2c(c1)OCO2` [I-3], the EC50 in data set [1] (setting [8]) worked out at 3.42 ± 0.64 µM. The compound also returned a cell viability in the data set on BV-2 microglia [2] of 97.8%.

Consider `FC(F)(F)c1ccc(CO/N=C(\Cn2ccnc2)c2ccc3c(c2)OCO3)cc1` [I-7], for which the melting point lay in the range of 121.8 to 122.7 °C. Also, the EC50 in data set [1] (setting [8]) was 2.37 ± 0.17 µM. For the same compound, in the data set on BV-2 microglia [2], the cell viability worked out at 92.8%.

For the compound `c1ccc(CO/N=C(\Cn2ccnc2)c2ccc3c(c2)OCO3)cc1` [I-6], the melting point was in the range of 186.4 to 187.9 °C. Also, the EC50 in data set [1] (setting [8]) came to 4.43 ± 0.43 µM. In addition, in the data set with BV-2 microglia [2], the cell viability is reported as 97.8%.
